One assay deals with AdeB (Acinetobacter baumannii, UniProt Q2FD70). Put plainly: fluorescence polarization titration using the inherent fluorescence of amotosalen ([…]). The format is binding. A general note: Fluorescence polarisation rises when a labelled molecule tumbles more slowly, as on binding a larger partner.
A further assay concerns A. baumannii. Put plainly: microbe, parasite or virus in culture. Further details: Broth microdilution MIC in 384-well plates after UVA exposure (2 J/cm2), A600 growth read-out. As to conditions: Acinetobacter baumannii, 20 h, MDRb=Yes, UVA 365 nm, 2 J/cm2, modal MIC of three or more replicates. As to the method: (§1) For MIC determination, bacterial stocks frozen at −80°C were streaked onto tryptic soy agar plates containing 5% sheep blood (Remel), and grown overnight at 35°C in ambient air. Colonies were then suspended in 0.9% saline to 0.5 McFarland, measured using a Densicheck (bioMérieux); diluted 1:300 in cation-adjusted Mueller-Hinton broth (BD); and dispensed into 384-well polystyrene plates (Greiner Bio-One) at 50 μL per well with the following exceptions: For MIC determinations with AG100AX strains containing pAdeC and pAdeAB plasmids, −80°C frozen stocks were inoculated directly into non-cation-adjusted Mueller-Hinton broth containing 100 μg/mL ampicillin, 50 μg/mL nourseothricin, 5 mM calcium chloride, and 5 mM magnesium chloride, with or without adeABC induction using 1% L-arabinose and 1.0 mM Isopropyl β-D-1-thiogalactopyranoside (IPTG), and grown overnight at 37°C in 15 mL conical tubes with continual rotation. Bacterial cultures were then adjusted to 0.5 McFarland and diluted 1:300 in the same medium, and dispensed as above. Induction of other cloned efflux pumps was with 1% L-arabinose (or 0.5% L-arabinose for cloned P. aeruginosa pumps) in the absence of supplemental divalent cations. Lastly, P. aeruginosa PAO1 strains were dispensed into 96-well plates to avoid skipped-well effects observed in 384-well plate format. Filled microplates were centrifuged at 1250 rcf for 4 min to ensure the entire inoculum was in continuity with the bottom of the well. Then, 2-fold doubling dilutions of stock solutions of amotosalen, AMT, or 8-MOP supplemented with 0.3% Tween 20 (Sigma-Aldrich) were dispensed into microwells using the HP D300 digital dispensing system (HP, Inc.), as previously described ([87][–][90]), and the microplates were mixed for 5 min on a microplate shaker to ensure complete mixing of psoralens with the inoculum. Microplates were then exposed to UV light in a UV Stratalinker 1800 (Stratagene), retrofitted with UV BL F8T5 CFL 12-inch UVA 365 nm Blacklight Bulbs (Coolspider), and calibrated according to manufacturer’s instructions with an UVA365 UV Light Meter (Amtast) for a total exposure of 2 Joules/cm^2 of UVA, to approximate exposure during platelet pathogen inactivation ([10]). Testing of control antibiotics was performed in an identical fashion, however, without UVA exposure. After incubation at 35°C for 20 h, the A600 was measured using a TECAN M1000 microplate reader. MICs were determined based on a growth inhibition A600 cutoff of 0.06, which is consistent with our prior determinations of Clinical and Laboratory Standards Institute reference standard equivalent, MIC determinations in 384-well plate format ([88], [90], [91]). […] The concentrations of MgCl2 and CaCl2 used were empirically determined previously to be optimal for efflux of minocycline and ethidium bromide (data not shown).

Another assay deals with Burkholderia multivorans. In words: microbe, parasite or virus in culture. As to conditions: Burkholderia multivorans, 20 h, read-out: Amotosalen Modal MIC (mM)a, Strain #=BEI NR-20533; MDRb=Unknown; UVA 365 nm, 2 J/cm2; modal MIC of three or more replicates. Further details: Broth microdilution MIC in 384-well plates after UVA exposure (2 J/cm2), A600 growth read-out. The procedure:
as §1

The test system of the next assay is P. aeruginosa. Put plainly: microbe, parasite or virus in culture. Further details: Broth microdilution MIC in 384-well plates after UVA exposure (2 J/cm2), A600 growth read-out. As to conditions: Pseudomonas aeruginosa, 20 h, UVA 365 nm, 2 J/cm2, modal MIC of three or more replicates. As to the method: as §1
The test system of assay [1] is Stenotrophomonas maltophilia. Put plainly: microbe, parasite or virus in culture. As to conditions: Stenotrophomonas maltophilia, 20 h, UVA 365 nm, 2 J/cm2, modal MIC of three or more replicates. Further details: Broth microdilution MIC in 384-well plates after UVA exposure (2 J/cm2), A600 growth read-out. The procedure:
as §1

The subject of a further assay is Burkholderia cenocepacia. In words: microbe, parasite or virus in culture. As to conditions: Burkholderia cenocepacia, 20 h, MDRb=Unknown, UVA 365 nm, 2 J/cm2, modal MIC of three or more replicates. Also on record: Broth microdilution MIC in 384-well plates after UVA exposure (2 J/cm2), A600 growth read-out. The procedure:
as §1

Another assay deals with K. pneumoniae. Put plainly: microbe, parasite or virus in culture. Further details: Broth microdilution MIC in 384-well plates after UVA exposure (2 J/cm2), A600 growth read-out. As to conditions: Klebsiella pneumoniae, 20 h, MDRb=Yes, UVA 365 nm, 2 J/cm2, modal MIC of three or more replicates. The procedure:
as §1

The next assay concerns Burkholderia cepacia. Put plainly: microbe, parasite or virus in culture. As to conditions: Burkholderia cepacia, 20 h, read-out: Amotosalen Modal MIC (mM)a, Strain #=BEI NR-702; MDRb=Unknown; UVA 365 nm, 2 J/cm2; modal MIC of three or more replicates. Also on record: Broth microdilution MIC in 384-well plates after UVA exposure (2 J/cm2), A600 growth read-out. As to the method:
as §1

The test system of the next assay is E. coli. In words: microbe, parasite or virus in culture. Also on record: Broth microdilution MIC in 384-well plates after UVA exposure (2 J/cm2), A600 growth read-out. As to conditions: Escherichia coli, 20 h, UVA 365 nm, 2 J/cm2, modal MIC of three or more replicates. As to the method:
as §1

Like-named read-outs stand apart in the source and are kept apart here. Some results are limits rather than exact numbers.

Sequence of AdeB (Q2FD70 entry or part of it): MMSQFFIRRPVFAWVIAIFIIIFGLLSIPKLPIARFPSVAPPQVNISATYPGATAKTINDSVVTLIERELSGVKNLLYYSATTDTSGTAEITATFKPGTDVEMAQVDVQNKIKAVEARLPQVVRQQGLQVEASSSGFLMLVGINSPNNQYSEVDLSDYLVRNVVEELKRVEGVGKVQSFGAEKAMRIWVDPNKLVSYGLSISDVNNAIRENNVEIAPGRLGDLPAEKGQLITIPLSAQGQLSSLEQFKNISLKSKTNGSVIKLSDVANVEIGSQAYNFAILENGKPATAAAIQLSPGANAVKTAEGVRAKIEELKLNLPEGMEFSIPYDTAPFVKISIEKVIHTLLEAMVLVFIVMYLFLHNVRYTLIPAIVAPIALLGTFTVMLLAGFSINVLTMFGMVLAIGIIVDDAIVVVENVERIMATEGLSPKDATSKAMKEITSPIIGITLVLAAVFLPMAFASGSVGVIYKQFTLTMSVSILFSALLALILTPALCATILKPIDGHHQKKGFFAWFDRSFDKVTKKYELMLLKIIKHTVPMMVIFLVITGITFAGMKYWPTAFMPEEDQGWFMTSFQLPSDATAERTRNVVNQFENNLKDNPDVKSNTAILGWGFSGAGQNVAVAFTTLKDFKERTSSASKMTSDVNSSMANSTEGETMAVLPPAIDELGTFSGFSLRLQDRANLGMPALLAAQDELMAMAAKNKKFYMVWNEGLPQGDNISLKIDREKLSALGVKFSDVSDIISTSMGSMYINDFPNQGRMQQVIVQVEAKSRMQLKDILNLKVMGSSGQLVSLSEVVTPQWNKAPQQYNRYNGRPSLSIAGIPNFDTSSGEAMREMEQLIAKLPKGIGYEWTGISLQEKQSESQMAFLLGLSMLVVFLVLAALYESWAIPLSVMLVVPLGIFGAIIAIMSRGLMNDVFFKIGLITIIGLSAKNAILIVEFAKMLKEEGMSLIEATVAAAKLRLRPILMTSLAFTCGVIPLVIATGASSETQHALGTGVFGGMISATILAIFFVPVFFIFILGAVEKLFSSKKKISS

With `Cc1oc2c(C)c3oc(=O)cc(C)c3cc2c1COCCN` [amotosalen, 4′-(4-amino-2-oxa)butyl-4,5′,8-trimethylpsoralen], the dissociation constant Kd (usually the constant that tells how readily two partners part at equilibrium) at AdeB amounted to 27.9 ± 1.8 µM. The MIC is 0.064 mM with A. baumannii (read-out: Amotosalen Modal MIC (mM)a, Strain #=FDA-CDC 0292); 0.128 mM in the assay on A. baumannii (read-out: Amotosalen Modal MIC (mM)a, Strain #=WRAIR 15067); more than 0.256 mM in the assay with Burkholderia multivorans; less than 0.004 mM in the assay on P. aeruginosa (read-out: Amotosalen Modal MIC (mM)a, Strain #=ATCC 27583e, MDRb=No); more than 0.256 mM with P. aeruginosa (read-out: Amotosalen Modal MIC (mM)a, Strain #=FDA-CDC 229, MDRb=Yes); 0.128 mM in the assay on P. aeruginosa (read-out: Amotosalen Modal MIC (mM)a, Strain #=FDA-CDC 230, MDRb=Yes). Moreover, the MIC in the assay on P. aeruginosa (read-out: Amotosalen Modal MIC (mM)a, Strain #=FDA-CDC 232, MDRb=Yes) was 0.256 mM; in assay [1] (read-out: Amotosalen Modal MIC (mM)a, Strain #=JEK154) it was 0.256 mM; in assay [1] (read-out: Amotosalen Modal MIC (mM)a, Strain #=JEK155), 0.064 mM; in the assay with Burkholderia cenocepacia (read-out: Amotosalen Modal MIC (mM)a, Strain #=BEI NR-701), 0.128 mM; with Burkholderia cenocepacia (read-out: Amotosalen Modal MIC (mM)a, Strain #=BEI NR-20535), 0.256 mM; with K. pneumoniae (read-out: Amotosalen Modal MIC (mM)a, Strain #=FDA-CDC 0113), 0.128 mM. The MIC in the assay on K. pneumoniae (read-out: Amotosalen Modal MIC (mM)a, Strain #=FDA-CDC 0146) was 0.256 mM; with Burkholderia cepacia, more than 0.256 mM; in the assay with E. coli (read-out: Amotosalen Modal MIC (mM)a, Strain #=ATCC 25922e, MDRb=No), 0.008 mM; in the assay with E. coli (read-out: Amotosalen Modal MIC (mM)a, Strain #=FDA-CDC 0114, MDRb=Yes) it was 0.128 mM; in the assay with E. coli (read-out: Amotosalen Modal MIC (mM)a, Strain #=FDA-CDC 0118, MDRb=Yes), 0.064 mM.

The record behind these values is paper PMC10117049, “RND Pump-Mediated Efflux of Amotosalen, a Compound Used in Pathogen Inactivation Technology to Enhance Safety of Blood Transfusion Products, May Compromise Its Gram-Negative Anti-Bacterial Activity” (mSphere, 2023).
